According to US20250026766A1, “Thiazolopyridyl Amide Derivatives as DNA Polymerase Theta Inhibitors” (BeiGene, Ltd., priority 2022, published 2025):
pIC50: −log10 of the molar value.

Target: Pol Theta (1-894) (Homo sapiens (Human), UniProt O75417)
Assay: Biochemical Pol Theta (1-894) ATPase IC50 assay (ADP-Glo, ssDNA substrate)
Conditions: ADP-Glo assay with ssDNA substrate, room temperature
Method in brief: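 His-tagged human Pol Theta 1-894 from Sf9 baculovirus cells, 2× enzyme solution at 12.5 nM, assayed with ssDNA substrate at room temperature in 40 mM Tris pH 7.5, 20 mM MgCl2, 1 mM DTT, 0.01% BSA, 0.05% Tween-20.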

Pol Theta (1-894), sequence (O75417 1-894): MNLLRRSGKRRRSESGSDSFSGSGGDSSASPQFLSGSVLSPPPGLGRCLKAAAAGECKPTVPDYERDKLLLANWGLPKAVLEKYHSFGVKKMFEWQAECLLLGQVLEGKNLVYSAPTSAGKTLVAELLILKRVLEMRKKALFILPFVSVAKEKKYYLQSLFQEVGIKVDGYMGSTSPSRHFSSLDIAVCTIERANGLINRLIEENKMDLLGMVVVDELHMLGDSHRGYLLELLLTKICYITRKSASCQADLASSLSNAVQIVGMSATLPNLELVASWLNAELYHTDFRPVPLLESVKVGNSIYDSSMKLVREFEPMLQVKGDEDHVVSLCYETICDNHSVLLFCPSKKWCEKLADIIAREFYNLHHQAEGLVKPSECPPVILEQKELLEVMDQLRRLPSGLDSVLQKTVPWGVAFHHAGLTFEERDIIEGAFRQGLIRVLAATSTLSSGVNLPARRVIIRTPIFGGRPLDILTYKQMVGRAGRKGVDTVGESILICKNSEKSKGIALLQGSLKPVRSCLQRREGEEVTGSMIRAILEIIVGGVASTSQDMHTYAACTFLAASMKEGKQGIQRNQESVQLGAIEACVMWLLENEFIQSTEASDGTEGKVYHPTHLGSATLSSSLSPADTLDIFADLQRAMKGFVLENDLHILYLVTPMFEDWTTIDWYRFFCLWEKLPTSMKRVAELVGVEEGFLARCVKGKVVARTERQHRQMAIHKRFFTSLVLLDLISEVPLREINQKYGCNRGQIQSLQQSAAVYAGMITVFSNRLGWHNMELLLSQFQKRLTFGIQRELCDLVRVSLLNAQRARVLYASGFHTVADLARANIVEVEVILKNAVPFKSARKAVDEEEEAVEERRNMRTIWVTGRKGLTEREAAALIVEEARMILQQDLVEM

SMILES | pIC50
Cc1cc(-c2cc(C#N)c(=O)n(C)c2C)c(C(=O)Nc2nc3ccc(-c4ccc(C#N)cc4)nc3s2)cn1 [Example 173, 5-cyano-N-(5-(4-cyanophenyl)thiazolo[5,4-b]pyridin-2-yl)-1,2,6′-trimethyl-6-oxo-1,6-dihydro-[3,4′-bipyridine]-3′-carboxamide] | 7.59
COc1ccc(C#N)cc1-c1cc(C#N)ncc1C(=O)Nc1nc2ccc(-c3ccc(NC(C)=O)cc3)nc2s1 [Example 36, N-(5-(4-acetamidophenyl)thiazolo[5,4-b]pyridin-2-yl)-6-cyano-4-(5-cyano-2-methoxyphenyl)nicotinamide] | 7.14
CC(=O)Nc1ccc(-c2ccc3nc(NC(=O)c4ccc(C#N)nc4N4CCOCC4)sc3n2)cc1 [Example 5, N-(5-(4-acetamidophenyl)thiazolo[5,4-b]pyridin-2-yl)-6-cyano-2-morpholinonicotinamide] | 6.73
COc1ccccc1-c1cnncc1C(=O)Nc1nc2ccc(Oc3ccc(Cl)c(F)c3)nc2s1 [Example 130, N-(5-(4-chloro-3-fluorophenoxy)thiazolo[5,4-b]pyridin-2-yl)-5-(2-methoxyphenyl)pyridazine-4-carboxamide] | 7.46
CCOc1ccc2nc(NC(=O)c3cnncc3-c3ccccc3OC)sc2n1 [Example 95, N-(5-ethoxythiazolo[5,4-b]pyridin-2-yl)-5-(2-methoxyphenyl)pyridazine-4-carboxamide] | 7.14
COc1ccc(C#N)cc1-c1cc(C)ncc1C(=O)Nc1nc2ccc(-c3ccc(NS(C)(=O)=O)cc3)nc2s1 [Example 18, 4-(5-cyano-2-methoxyphenyl)-6-methyl-N-(5-(4-(methylsulfonamido)phenyl)thiazolo[5,4-b]pyridin-2-yl)nicotinamide] | 7.96
COc1ccc(C#N)cc1-c1cc(C)ncc1C(=O)Nc1nc2ccc(-c3ccc([C@H](C)C#N)cc3)nc2s1 [Example 177B, (S)-4-(5-cyano-2-methoxyphenyl)-N-(5-(4-(1-cyanoethyl)phenyl)thiazolo[5,4-b]pyridin-2-yl)-6-methylnicotinamide] | 7.89
COCCOc1ccc2nc(NC(=O)c3cnc(C)cc3-c3cc(C#N)ccc3OC)sc2n1 [Example 77, 4-(5-cyano-2-methoxyphenyl)-N-(5-(2-methoxyethoxy)thiazolo[5,4-b]pyridin-2-yl)-6-methylnicotinamide] | 7.30
COc1ccccc1-c1cnncc1C(=O)Nc1nc2ccc(-c3c(C)cc(Cl)cc3Cl)nc2s1 [Example 150, N-(5-(2,4-dichloro-6-methylphenyl)thiazolo[5,4-b]pyridin-2-yl)-5-(2-methoxyphenyl)pyridazine-4-carboxamide] | 7.37
COc1ccc(C#N)cc1-c1cc(C)ncc1C(=O)Nc1nc2ccc(-c3ccc(N4CCOCC4)cc3)nc2s1 [Example 59, 4-(5-cyano-2-methoxyphenyl)-6-methyl-N-(5-(4-morpholinophenyl)thiazolo[5,4-b]pyridin-2-yl)nicotinamide] | 7.01
COc1ccccc1-c1cnncc1C(=O)Nc1nc2ccc(-c3ccc(C#N)cc3F)nc2s1 [Example 128, N-(5-(4-cyano-2-fluorophenyl)thiazolo[5,4-b]pyridin-2-yl)-5-(2-methoxyphenyl)pyridazine-4-carboxamide] | 8.09
COc1ccc(C#N)cc1-c1cc(C)ncc1C(=O)Nc1nc2ccc(-c3ccc(C(=O)N(C)C)cc3)nc2s1 [Example 86, 4-(5-cyano-2-methoxyphenyl)-N-(5-(4-(dimethylcarbamoyl)phenyl)thiazolo[5,4-b]pyridin-2-yl)-6-methylnicotinamide] | 8.13
CNC(=O)c1ccc(-c2ccc3nc(NC(=O)c4cnncc4-c4ccccc4OC)sc3n2)c(C)c1 [Example 134, 5-(2-methoxyphenyl)-N-(5-(2-methyl-4-(methylcarbamoyl)phenyl)thiazolo[5,4-b]pyridin-2-yl)pyridazine-4-carboxamide] | 7.82
COc1cc(Cl)ccc1Oc1ccc2nc(NC(=O)c3cnncc3-c3ccccc3OC)sc2n1 [Example 154, N-(5-(4-chloro-2-methoxyphenoxy)thiazolo[5,4-b]pyridin-2-yl)-5-(2-methoxyphenyl)pyridazine-4-carboxamide] | 7.22
COc1ccc(F)cc1-c1cc(C)ncc1C(=O)Nc1nc2ccc(-c3ccc(NC(C)=O)cc3)nc2s1 [Example 25, N-(5-(4-acetamidophenyl)thiazolo[5,4-b]pyridin-2-yl)-4-(5-fluoro-2-methoxyphenyl)-6-methylnicotinamide] | 7.27
COc1ccc(C#N)cc1-c1cc(C)ncc1C(=O)Nc1nc2ccc(-c3ccc(NC(=O)C(C)C)cc3)nc2s1 [Example 50, 4-(5-cyano-2-methoxyphenyl)-N-(5-(4-isobutyramidophenyl)thiazolo[5,4-b]pyridin-2-yl)-6-methylnicotinamide] | 6.66
COc1ccccc1-c1cnncc1C(=O)Nc1nc2ccc(C(=O)NC3CCOCC3)nc2s1 [Example 113, 2-(5-(2-methoxyphenyl)pyridazine-4-carboxamido)-N-(tetrahydro-2H-pyran-4-yl)thiazolo[5,4-b]pyridine-5-carboxamide] | 6.78

SMILES | pIC50
COc1ccc([N+](=O)[O-])cc1-c1ccncc1C(=O)Nc1nc2ccc(-c3ccc(C#N)cc3)nc2s1 [Example 156, N-(5-(4-cyanophenyl)thiazolo[5,4-b]pyridin-2-yl)-4-(2-methoxy-5-nitrophenyl)nicotinamide] | 7.85
Cc1cc(-c2ccccc2CO)c(C(=O)Nc2nc3ccc(-c4ccc(C#N)cc4)nc3s2)cn1 [Example 64, N-(5-(4-cyanophenyl)thiazolo[5,4-b]pyridin-2-yl)-4-(2-(hydroxymethyl)phenyl)-6-methylnicotinamide] | 6.73
COc1ccccc1-c1cnncc1C(=O)Nc1nc2ccc(-c3ccc(C(=O)N(C)C)cc3)nc2s1 [Example 92, N-(5-(4-(dimethylcarbamoyl)phenyl)thiazolo[5,4-b]pyridin-2-yl)-5-(2-methoxyphenyl)pyridazine-4-carboxamide] | 7.80
COc1ccc(C#N)cc1-c1cc(C)ncc1C(=O)Nc1nc2ccc(-c3ccc(NC(=O)CO)cc3)nc2s1 [Example 42, 4-(5-cyano-2-methoxyphenyl)-N-(5-(4-(2-hydroxyacetamido)phenyl)thiazolo[5,4-b]pyridin-2-yl)-6-methylnicotinamide] | 7.19
Cc1cc(-c2ccc(=O)n(C)c2)c(C(=O)Nc2nc3ccc(-c4ccc(C#N)cc4)nc3s2)cn1 [Example 54, N-(5-(4-cyanophenyl)thiazolo[5,4-b]pyridin-2-yl)-1,6′-dimethyl-6-oxo-1,6-dihydro-[3,4′-bipyridine]-3′-carboxamide] | 7.19
COc1ccc(C#N)cc1-c1cc(C)ncc1C(=O)Nc1nc2ccc(-c3ccc(C(C)(C)O)cc3)nc2s1 [Example 80, 4-(5-cyano-2-methoxyphenyl)-N-(5-(4-(2-hydroxypropan-2-yl)phenyl)thiazolo[5,4-b]pyridin-2-yl)-6-methylnicotinamide] | 7.59
COc1ccccc1-c1cnncc1C(=O)Nc1nc2ccc(-c3cc(C)c(NC(C)=O)c(C)c3)nc2s1 [Example 140, N-(5-(4-acetamido-3,5-dimethylphenyl)thiazolo[5,4-b]pyridin-2-yl)-5-(2-methoxyphenyl)pyridazine-4-carboxamide] | 8.11
COc1ccc(C#N)cc1-c1cc(C)ncc1C(=O)Nc1nc2ccc(-c3ccc(C#N)cn3)nc2s1 [Example 159, 4-(5-cyano-2-methoxyphenyl)-N-(5-(5-cyanopyridin-2-yl)thiazolo[5,4-b]pyridin-2-yl)-6-methylnicotinamide] | 8.30
COc1ccccc1-c1cnncc1C(=O)Nc1nc2ccc(-c3ccc(S(C)(=O)=O)cc3F)nc2s1 [Example 133, N-(5-(2-fluoro-4-(methylsulfonyl)phenyl)thiazolo[5,4-b]pyridin-2-yl)-5-(2-methoxyphenyl)pyridazine-4-carboxamide] | 7.96
COc1cccc(F)c1-c1cc(C)ncc1C(=O)Nc1nc2ccc(-c3ccc(C#N)cc3)nc2s1 [Example 104, N-(5-(4-cyanophenyl)thiazolo[5,4-b]pyridin-2-yl)-4-(2-fluoro-6-methoxyphenyl)-6-methylnicotinamide] | 8.19
COc1ccc(C#N)cc1-c1cc(C)ncc1C(=O)Nc1nc2ccc(-c3ccc(C4(C#N)CC4)cc3)nc2s1 [Example 29, 4-(5-cyano-2-methoxyphenyl)-N-(5-(4-(1-cyanocyclopropyl)phenyl)thiazolo[5,4-b]pyridin-2-yl)-6-methylnicotinamide] | 7.24
COc1ccccc1-c1cnncc1C(=O)Nc1nc2ccc(C(C)c3ccc(Cl)cc3)nc2s1 (stereo not drawn) [Example 138, N-(5-(1-(4-chlorophenyl)ethyl)thiazolo[5,4-b]pyridin-2-yl)-5-(2-methoxyphenyl)pyridazine-4-carboxamide] | 6.58
COc1ccccc1-c1cnncc1C(=O)Nc1nc2ccc(-c3ccc(Cl)cc3F)nc2s1 [Example 100, N-(5-(4-chloro-2-fluorophenyl)thiazolo[5,4-b]pyridin-2-yl)-5-(2-methoxyphenyl)pyridazine-4-carboxamide] | 7.54
COc1ccccc1-c1cnncc1C(=O)Nc1nc2ccc(-c3c(C)cc(Cl)cc3C)nc2s1 [Example 101, N-(5-(4-chloro-2,6-dimethylphenyl)thiazolo[5,4-b]pyridin-2-yl)-5-(2-methoxyphenyl)pyridazine-4-carboxamide] | 7.46
COc1ccccc1-c1cc(C)ncc1C(=O)Nc1nc2ccc(-c3ccc(Cl)cc3)nc2s1 [Example 14, N-(5-(4-chlorophenyl)thiazolo[5,4-b]pyridin-2-yl)-4-(2-methoxyphenyl)-6-methylnicotinamide] | 6.84
COc1ccccc1-c1cnncc1C(=O)Nc1nc2ccc(-c3ccc(NC(=O)CO)cc3)nc2s1 [Example 111, N-(5-(4-(2-hydroxyacetamido)phenyl)thiazolo[5,4-b]pyridin-2-yl)-5-(2-methoxyphenyl)pyridazine-4-carboxamide] | 7.96
